Reference: paper PMC10108821, “Three tyrosine kinase inhibitors cause cardiotoxicity by inducing endoplasmic reticulum stress and inflammation in cardiomyocytes” (BMC Medicine, 2023)

How the values were obtained:
Cor.4U hiPSC-CMs [1] = experiment: ATP level (CellTiter-Glo) in hiPSC-CMs; type: cell-based, human
Procedure: ATP content was measured using the CellTiter-Glo Luminescent Cell Viability Assay (Promega) following the manufacturer’s protocol. After adding CellTiter-Glo reagents and incubation, luminescence was quantified using a Synergy H1 plate reader (BioTek Instruments). ATP standards were prepared from 0.01 to 5 μM. For each drug, we fitted a four-parameter log-logistic model to calculate ED50 at day 5 (Fig S1). To rank the cellular toxicity of the eight TKIs (Fig 1T), we calculated (EC50-Cmax)/(EC50+Cmax) and arranged from the smallest to the biggest for increasing cellular toxicity.

HELP hiPSC-CMs = experiment: CardioExcyte 96 microelectrode array: base impedance and extracellular field potential; type: cell-based, human; conditions: fixed doses: 10 µM, crizotinib and ponatinib 3.16 µM; up to 24 h
Procedure: HELP hiPSC-CMs were seeded evenly into the 96-well microelectrode array, NSP-96 0.6mm sensor plate (Nanion technologies), at 50,000 cells per well. Measurements were started after 3-5 days of culture of these cells and until the impedance and the extracellular field potential are stable. Measurements were taken a few times before drug addition, and every 30~60 minutes after the drugs were added at 2x concentration. Values were averaged from 3 wells per group. Beat rate, amplitude of impedance, base impedance and FPDc were calculated by the Cardio Excyte Control 96 software package (Nanion Technologies).

[2] = in vivo; cited from earlier work
Cor.4U hiPSC-CMs [3] = experiment: 3'DGE-UMI RNAseq transcriptome of hiPSC-CMs; conditions: high PC1 loadings; ponatinib at high dose
NRCMs [4] = experiment: Lipid peroxidation by C11-bodipy 581/591 and flow cytometry
Procedure: (§1) For ROS assessment, cells were washed with PBS once and stained with 10μM H2DCFHDA (MCE) in phenol red-free DMEM (Procell) in a humid incubator with 5% CO2 at 37°C for 30 minutes. Cells were washed with PBS twice and dissociated to single cells before flow cytometry analysis at the FITC channel. For lipid peroxidation measurement, cells were washed with PBS once and stained with 2μM C11-bodipy^581/591 (Cayman) in phenol red-free DMEM (Procell) in a humid incubator with 5% CO2 at 37°C for 30 minutes. Cells were washed with PBS twice and dissociated to single cells before flow cytometry analysis at both the FITC and the PE channels. Fluorescence of the oxidized C11-bodipy were acquired through the FITC channel (Ex/Em=488/520nm) and that of the non-oxidized C11-bodipy through the PE channel (Ex/Em=555/624nm).

NRCMs [5] = experiment: Calcium staining with Calbryte 520 AM; type: cell-based, rat; conditions: 0.5 and 1 h; 10 µM afatinib, 10 µM sorafenib, 5.62 µM ponatinib
patients = conditions: ref Table S1, 2, 4, 26–36; cited from earlier work
NRCMs [6] = experiment: ROS by H2DCFDA staining and flow cytometry; conditions: 3 h; 10 µM afatinib, 10 µM sorafenib, 5.62 µM ponatinib
Procedure: as §1

ER stress genes in NRCMs = experiment: qRT-PCR of ER stress genes in NRCMs; type: cell-based, rat
Procedure: Rats were euthanized by decapitation and thoracic cavity was opened with scissors and hearts were popped out of the opening gently with fingers. Hearts were clipped and put in HBSS immediately; 20–40 hearts were collected into one sterile vial containing a magnetic stir bar and 1 mL digestive media made of 0.1% trypsin (Macklin) and 0.05% collagenase (Gibco) in HBSS. Hearts were minced until they were uniform in size. Digestive media was added to 10 mL for 40 hearts and stirred gently for 6 min. Supernatant was discarded and the digestion was repeated once; 10 mL digestive media was added and stirred gently for 10 min. The supernatant with cells were collected and the digestion and collection were repeated 4 times. Cells were centrifuged at 1200 rpm for 5 min, resuspended in media (Dulbecco’s modified Eagleʼs medium (Gibco)) with 10% fetal bovine serum (FBS; VISTECH), 1% penicillin–streptomycin, and 1% 0.1 M 5-bromo-2-deoxyuridine solution (Shanghai Yuanye) and filtered through a 40-μm cell strainer. Cells were seeded on a 100-mm plastic dish and cultured in a 5% CO2 incubator at 37 °C for 2 h to allow non-myocytes to adhere to the plate. The dish was swirled and media gently pipetted up and down to detach lightly attached cardiomyocytes. […] All drug treatments were performed after this media change.
RNA was isolated based on a standard protocol using TRIzol reagent (Vazyme). TRIzol (1ml per 1 well of a 6-well plate) was used to lyse cells and chloroform was added for RNA separation. Samples were shaked vigorously by hand for 15 seconds and incubated at room temperature for 2-3 minutes. RNA was present in the aqueous phase after centrifuge at 12000 x g for 15 minutes. Isopropyl alcohol was mixed to precipitate RNA from the aqueous phase. […] 1 μg total RNA was used for cDNA synthesis using a reverse transcription kit (Bioman). We then measured expression of genes of interest with SYBRR Green qPCR Mix (Bioman) using Applied Biosystems 7500 Quantitative PCR Instrument. Gene expression was normalized to the 18S ribosomal RNA expression and primers were listed in Primers Table.

NRCMs [7] = experiment: Seahorse assay: oxygen consumption and extracellular acidification; type: cell-based, rat; conditions: 24 h; fixed doses: 10 µM, crizotinib and ponatinib 3.16 µM
Procedure: Rats were euthanized by decapitation and thoracic cavity was opened with scissors and hearts were popped out of the opening gently with fingers. Hearts were clipped and put in HBSS immediately; 20–40 hearts were collected into one sterile vial containing a magnetic stir bar and 1 mL digestive media made of 0.1% trypsin (Macklin) and 0.05% collagenase (Gibco) in HBSS. Hearts were minced until they were uniform in size. Digestive media was added to 10 mL for 40 hearts and stirred gently for 6 min. Supernatant was discarded and the digestion was repeated once; 10 mL digestive media was added and stirred gently for 10 min. The supernatant with cells were collected and the digestion and collection were repeated 4 times. Cells were centrifuged at 1200 rpm for 5 min, resuspended in media (Dulbecco’s modified Eagleʼs medium (Gibco)) with 10% fetal bovine serum (FBS; VISTECH), 1% penicillin–streptomycin, and 1% 0.1 M 5-bromo-2-deoxyuridine solution (Shanghai Yuanye) and filtered through a 40-μm cell strainer. Cells were seeded on a 100-mm plastic dish and cultured in a 5% CO2 incubator at 37 °C for 2 h to allow non-myocytes to adhere to the plate. The dish was swirled and media gently pipetted up and down to detach lightly attached cardiomyocytes. The collected myocytes were seeded in the same media described before; 48 h after plating, medium was exchanged to fresh DMEM (Gibco) with or without 2% FBS. All drug treatments were performed after this media change.
NRCMs were seeded evenly into the Seahorse XF96 cell culture plates (Agilent) and cultured in DMEM high glucose with 2% FBS. About 2 hours before the test, cells were moved to a non-CO2 incubator at 37 ° C and incubated for 1 hour. 1 hour prior to the test, culture media was replaced with the Seahorse Basal DMEM at 37°C (with appropriate concentration of glucose, 4mM L-glutamine, 1 mM sodium pyruvate and 1% penicillin-streptomycin solution) and incubated in a non-CO2 incubator at 37°C for 1 hour. Drugs were prepared at 8x to 10x concentrations with the corresponding seahorse media as in each well and added into ports of Seahorse XF96 cartridge plates which have been hydrated overnight. XFe96 Extracellular Flux Analyzer (Agilent) was used to measure oxygen consumption rate and extracellular acidification rate of cells with different drug treatments.

[8] = system: Phospho-eIF2α, XBP1s, ATF6 (cleaved); experiment: Western blot of ER stress effectors in NRCMs; type: cell-based, rat
[9] = Sprague-Dawley, rat, 24 h, 10 µM

- EC50 on cells relative to Cmax in vivo (Cor.4U hiPSC-CMs [1]): ~ 60 folds
- change in percent of cells with high lipid peroxidation (NRCMs [4]): increased slightly
- level of lipid peroxidation, TKI alone (NRCMs [4]; [9]): 92.5%
- level of lipid peroxidation, TKI with trolox (NRCMs [4]; [9]): 83%
- increase in percent of ROS-high cells (NRCMs [6]): 14.1%
Compound: CN(C)C/C=C/C(=O)Nc1cc2c(Nc3ccc(F)c(Cl)c3)ncnc2cc1O[C@H]1CCOC1 [afatinib]
- effect on ATP levels (Cor.4U hiPSC-CMs [1]; 0.32 to 10 µM, day 1 to day 5): dose-dependent and time-dependent reduction in ATP levels
- dose-dependent toxicity (ATP fold changes) (Cor.4U hiPSC-CMs [1]; day 1, different doses, RNAseq conditions): dose-dependent toxicity
- time-dependent toxicity (ATP fold changes) (Cor.4U hiPSC-CMs [1]; fixed dose over 5 days, RNAseq conditions): increasing toxicity with treatment duration
- effect on beat rate, contraction, base impedance and corrected field potential duration (HELP hiPSC-CMs): reduced beat rate and corrected field potential duration
- Cmax [2]: 50 nM
- expression of genes associated with ER stress (ATF4, NUPR1, DDIT3, TRIB3, CHAC1, SESN2, HERPUD1) (Cor.4U hiPSC-CMs [3]): upregulated
- expression of genes related to cardiomyopathy and sarcomeric structure (MYH7, SYNPO2L, LDB3, ACTN2, MYLK3) (Cor.4U hiPSC-CMs [3]): downregulated
- cytosolic calcium concentration (NRCMs [5]): did not cause any significant changes in calcium concentration
- level of cardiotoxicity based on literature reports (patients): low cardiotoxicity
- temporal activation of ER stress genes, 72 versus 24 h (ER stress genes in NRCMs; afatinib 5.62 µM, sorafenib 3.16 μM, ponatinib 1.78 μM): higher expression of Atf4, but a lower expression of Xbp1s and Atf6 at 72- than 24-h treatment
- relative activation of the three UPR branches (ER stress genes in NRCMs; high-dose treatment, 24 h): activated the ATF4 axis more robustly than the XBP1s and the ATF6 axes
- basal oxygen consumption rate (OCR) (NRCMs [7]): trend of inhibiting basal oxygen consumption rate (OCR)
- duration of activated eIF2α phosphorylation [8]: 12 h
